# Measured values: US11408038B2, “N-cadherin and FGFR1 and/or FGFR4 for use in predicting the response of patients to a lung cancer treatment and method and kit based on said use” (FUNDACIÓN DE INVESTIGACIÓN HOSPITAL 12 DE OCTUBRE, priority 2017, dated 2022)
# Tests used:
# [1] = tested on: mesenchymal bladder cancer cell lines; conditions: cited from earlier work
# [2] = tested on: H520 cell line; assay: Cell proliferation (growth curve) with FGFR inhibitors, H520; assay type: cell-based; conditions: H520, endogenous FGFR1, FGFR4 and high N-cadherin; 0.5 μM or 1 μM
# Experimental: (§1) 3,500 cells were seeded per well in 12-well plates. At 24 hours (day 0) the cells of the first point of the curve were fixed, and every 24-48 hours a new point of the curve was fixed and the medium of the rest was changed. The fixed plates were preserved with the cells in PBS at 4° C. until all the points of the curve were fixed. The plates were then stained with crystal violet for 20 minutes, washed and allowed to dry. Once dry, 20% acetic acid was added to each well to dilute the crystal violet, and the absorbance at 595 nm was measured on a VICTOR optical reading device (PerkinElmer). All absorbances were standardised in relation to the absorbance of day 0 of each experimental condition. Finally, this standardised value (growth relative to day 0 on the Y-axis) was plotted against time (days, X-axis).
# (§2) To verify whether N-cadherin expression is decisive in the determination of the efficacy of FGFR inhibition in lung cancer treatment, the efficacy of two selective FGFR inhibitors, in terms of growth inhibition, was tested. For this purpose, cell lines with high endogenous expression of FGFR1 and/or FGFR4 and low expression of N-cadherin (A549 and H460), or with high endogenous expression of FGFR1 and/or FGFR4 and high expression of N-cadherin (H520 and H226) were selected. […]
# [3] = tested on: H460 cell line; assay: Cell proliferation (growth curve) with FGFR inhibitors, H460; assay type: cell-based; conditions: H460, endogenous FGFR1, low N-cadherin; 0.5 μM or 1 μM
# Experimental: as §1, §2
# [4] = tested on: H226 cell line; assay: Cell proliferation (growth curve) with FGFR inhibitors, H226; assay type: cell-based; conditions: H226, endogenous FGFR1 and high N-cadherin; 0.5 μM or 1 μM
# Experimental: as §1, §2
# [5] = tested on: A549 cell line; assay: Cell proliferation (growth curve) with FGFR inhibitors, A549; assay type: cell-based; conditions: A549, endogenous FGFR1 and FGFR4, low N-cadherin; 0.5 μM or 1 μM
# Experimental: as §1, §2
# [6] = tested on: TP13 epidermoid carcinoma PDX (low N-cadherin); assay: PDX treatment, tumour growth, model TP13; assay type: in vivo, mice; conditions: 7.5 mg/kg/day oral, Monday to Friday
# Experimental: (§3) Tumours from patients with non-small cell lung cancer, covered with Matrigel (BD #356234) are implanted in the flank of immunocompromised nude mice of 5-6 weeks of age, under anaesthesia by isofluorane inhalation and under analgesia by buprenorphine. To perform the implant, a small cut is made in the flank of the mouse under anaesthesia and analgesia and the tumour fragment is inserted, about 100-150 mm^3 in volume.
# (§4) The size of the tumours generated by the xenografts was measured weekly with a measuring gauge. The shortest and longest length of each tumour was measured and the tumour volume was calculated with the formula: 0.5×(longest dimension)×(shortest dimension)^2.
# (§5) For this purpose, the model of interest was implanted in 4-6 mice per treatment group as stated above, and the growth of the tumours generated was monitored. […]
# (§6) The growth of the tumours is shown in graphs of tumour growth against time, where each measurement of tumour volume is relativised with the initial measurement after commencing the treatment, and the median and mean error are shown for each treatment group. The variation in tumour volume is represented with bar graphs which show the increase (or decrease), expressed as a percentage, of the volume of each tumour with regard to the initial volume in each treatment group
# [7] = tested on: lung cancer cell lines; assay: In vitro experiments with the two FGFR inhibitors, growth inhibition overall; assay type: cell-based; conditions: BGJ398 versus AZD4547
# Experimental: To verify whether N-cadherin expression is decisive in the determination of the efficacy of FGFR inhibition in lung cancer treatment, the efficacy of two selective FGFR inhibitors, in terms of growth inhibition, was tested. For this purpose, cell lines with high endogenous expression of FGFR1 and/or FGFR4 and low expression of N-cadherin (A549 and H460), or with high endogenous expression of FGFR1 and/or FGFR4 and high expression of N-cadherin (H520 and H226) were selected. In these lines, an analysis was performed on the effect on cell proliferation of two selective FGFR inhibitors: BGJ398 and AZD4547 (SELLECKCHEM, Refs. S2183 and S2801 respectively) with regard to time.
# [8] = tested on: FGFR-related signalling pathways (pSTAT3, pAKT, p-p42/p44); assay: Western blot of FGFR-related signalling pathways in treated PDX TP91; assay type: in vivo, mice; conditions: TP91 tumours, high N-cadherin
# Experimental: (§7) The total proteins of the tumours from xenografts were obtained by adding the lysis buffer to the previously pulverized tissue fragment in a mortar pre-cooled with liquid nitrogen, to avoid thawing the fragment; it was then incubated on ice for 2 hours, stirring every 10 minutes, and the volume was collected in 2 mL tubes that were centrifuged at 15,000×g for 10 minutes at 4° C. to eliminate the remnants of undissolved tissue, and the supernatant was stored at −80° C. The extraction buffer and the quantification method used were the same as in the case of protein extraction from cell lines.
# Protein immunodetection was performed according to a standard protocol on PDVF membranes (GE Healthcare). The proteins were separated on SDS polyacrylamide gels using a 1X Tris HCl 0.13 M electrophoresis buffer, 0.95 M glycine, 0.5% SDS, and were transferred to PDVF membranes, using a Trans-Blot Turbo kit (BioRad). The transfer was performed at 400 mA for 3 hours in transfer buffer (0.025 M TrisHCl, 0.2 M glycine, 20% methanol). The membranes were blocked for 1 hour under stirring with the blocking buffer (TBS, 0.1% Tween20 and 1% BSA). Subsequently, the membranes were incubated with the appropriate dilution of primary antibody for 16 hours at 4° C. After this incubation, the membranes were washed with washing buffer (TBS 0.1% Tween-20) and incubated with a 1:5,000 dilution of the appropriate peroxidase-conjugated secondary antibody, for one hour at ambient temperature. The detection was performed using a chemiluminescent reaction (Clarity ECL, Biorad) and visualization using luminescence detection equipment (ChemiDoc, BioRad).
# The route of administration of the drug was oral.
# [9] = tested on: FGFR-related signalling pathways; assay: Western blot of FGFR-related signalling pathways in treated PDX TP60; assay type: in vivo, mice; conditions: TP60 tumours, low N-cadherin
# Experimental: as §7
# Protein immunodetection was performed according to a standard protocol on PDVF membranes (GE Healthcare). The proteins were separated on SDS polyacrylamide gels using a 1X Tris HCl 0.13 M electrophoresis buffer, 0.95 M glycine, 0.5% SDS, and were transferred to PDVF membranes, using a Trans-Blot Turbo kit (BioRad). The transfer was performed at 400 mA for 3 hours in transfer buffer (0.025 M TrisHCl, 0.2 M glycine, 20% methanol). The membranes were blocked for 1 hour under stirring with the blocking buffer (TBS, 0.1% Tween20 and 1% BSA). […] The detection was performed using a chemiluminescent reaction (Clarity ECL, Biorad) and visualization using luminescence detection equipment (ChemiDoc, BioRad). […]
# [10] = tested on: TP60 adenocarcinoma PDX (low N-cadherin); assay: PDX treatment, tumour growth, model TP60; assay type: in vivo, mice; conditions: 7.5 mg/kg/day oral, Monday to Friday
# Experimental: as §3, §4, §5, §6
# [11] = tested on: TP114 epidermoid carcinoma PDX (high N-cadherin); assay: PDX treatment, tumour growth, model TP114; assay type: in vivo, mice; conditions: 7.5 mg/kg/day oral
# Experimental: as §3, §4, §5, §6
# [12] = tested on: TP96 epidermoid carcinoma PDX (high FGFR1, FGFR4 and N-cadherin)
# Experimental: as §3, §4
# For this purpose, the model of interest was implanted in 4-6 mice per treatment group as stated above, and the growth of the tumours generated was monitored. […] Once the groups were established, the treatments were commenced, lasting between 3 and 5 weeks, depending on the growth rate of each model and on the drug or drugs employed.
# The concentration of AZD4547 employed was 7.5 mg/kg/day, administered from Monday to Friday. The route of administration of the drug was oral. At the end of the treatment, the mice were sacrificed and the tumours processed and stored as stated above.
# as §6
# [13] = tested on: TP91 adenocarcinoma PDX (high N-cadherin); assay: PDX treatment, tumour growth, model TP91; assay type: in vivo, mice; conditions: 7.5 mg/kg/day oral
# Experimental: as §3, §4, §5, §6
Compound,responsiveness of mesenchymal versus epithelial bladder cancer cell lines [1],effect on cell growth (relative growth with regard to time) [2],effect on cell growth (relative growth with regard to time) [3],effect on cell growth (relative growth with regard to time) [4],effect on cell growth (relative growth with regard to time) [5],effect on tumour growth [6],"efficacy in the in vitro experiments, compared between the two inhibitors [7]",levels of pAKT [8],levels of pSTAT3 [8],p-p42/p44 activation [8],activation of the FGFR-related signalling pathways studied [9],effect on tumour growth [10],"average reduction in volume with regard to the control condition ([11]; TP114, high N-cadherin, Monday to Friday)","complete tumour regression, fraction of the tumours treated ([11]; TP114)","average reduction in volume with regard to the control condition ([12]; TP96, high FGFR1, FGFR4 and N-cadherin, 7.5 mg/kg/day oral, Monday to Friday)","complete tumour regression, fraction of the tumours treated ([12]; TP96, 7.5 mg/kg/day oral)","response to the treatment ([12]; TP96, partial response = average reduction in tumour volume of 50% or greater vs volume at commencement of treatment)","average reduction in volume with regard to the control condition ([13]; TP91, high N-cadherin, Monday to Friday)","complete tumour regression, fraction of the tumours treated ([13]; TP91)"
CN1CCN(c2ccc3nc(-c4c(N)c5c(F)cccc5[nH]c4=O)[nH]c3c2)CC1 [TI-258],more responsive,–,–,–,–,–,–,–,–,–,–,–,–,–,–,–,–,–,–
CCN1CCN(c2ccc(Nc3cc(N(C)C(=O)Nc4c(Cl)c(OC)cc(OC)c4Cl)ncn3)cc2)CC1 [BGJ398],–,reduce the growth,do not exert a significant effect,reduce the growth,do not exert a significant effect,–,–,–,–,–,–,–,–,–,–,–,–,–,–
AZD4547,–,reduce the growth,do not exert a significant effect,reduce the growth,do not exert a significant effect,no effect,greatest efficacy,reduction,reduction,modest reduction,does not alter the activation,no effect,25.5%,⅖,1.4%,⅖,partial response,14.4%,⅕
